Results from US20240391877A1, “COMPOUND AS INHIBITOR OF COMPLEMENT FACTOR D, AND PHARMACEUTICAL COMPOSITION AND USE THEREOF” (WUHAN CREATERNA SCIENCE AND TECHNOLOGY CO.,LTD., priority 2021, published 2024).
Read-outs that look alike come from different tables or passages of the source.

What was measured:
[1] = biological target: T1, complement factor D (Homo sapiens, UniProt P00746); test: Complement factor D inhibitory activity (C3b method) in vitro screening; product Bb detected by ELISA; format: biochemical; conditions: factor D + factor B + factor C3b, 37° C., Bb by MicroVue Bb Plus ELISA
T1 construct: purchased Complement tech
T1 sequence (P00746 26-253): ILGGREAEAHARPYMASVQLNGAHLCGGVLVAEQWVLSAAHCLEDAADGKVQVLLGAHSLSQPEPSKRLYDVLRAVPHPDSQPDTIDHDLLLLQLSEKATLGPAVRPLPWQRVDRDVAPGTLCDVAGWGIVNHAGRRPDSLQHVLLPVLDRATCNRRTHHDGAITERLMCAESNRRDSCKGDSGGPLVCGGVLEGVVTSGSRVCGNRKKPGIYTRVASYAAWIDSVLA
From the text: 1. Complement Factor D Inhibitory Activity (C3b Method) In Vitro Screening Experiment
V-bottom plate (AXYGEN), DMSO (Sigma), MicroVue Bb Plus ELISA kit (Quidel), complement factor C3b (abbreviated as factor C3b, Complement tech), complement factor B (abbreviated as factor B, Complement tech), complement factor D (abbreviated as factor D, Complement tech), EDTA (MACKLIN), GVB^o (Complement tech), EGTA (Aladdin), MgCl2 (Aladdin), NaOH (Sinopharm), microplate reader (Molecular Devices, SpectraMax i3x), microplate thermostatic shaker (Thermo, MB100-2A), pipette (Gilson)
0.1 M Mg-EGTA: 3.8 g of EGTA, 0.9521 g of MgCl2, and 0.7 g of NaOH were weighed, and the pH was adjusted to 7.5 with NaOH. Distilled water was added to make up to 100 mL, and the mixture was filtered with a […] sterile needle filter, stored in portions at 4° C.
Buffer: 0.1 M Mg-EGTA solution was diluted 10-fold to 10 mM with GVB^o buffer; • factor B working solution: 1 mg/mL factor B solution (10.75 μM) was diluted 6.7-fold to 1.6 μM with buffer; • factor C3b working solution: 1 mg/mL factor C3b solution (5.68 μM) was diluted 5-fold to […] with buffer; • factor D working solution: 0.1 mg/mL factor D solution (4.17 μM) was diluted 1303-fold to 3.2 nM with buffer.
Note: a. The above dilution multiples are for reference only and are adjusted according to the true concentration labeled on the reagent; • b. factor B: 93 KDa, factor D: 24 KDa, factor C3b: 176 KDa.
Stop solution: An appropriate amount of EDTA powder was weighed, dissolved in a certain amount of GVB^o buffer, and the pH was adjusted to 7.5 with NaOH. The mixture was stirred until clear and prepared into a 10 mM solution.
Compound stock solution: 40 mM compound solution was diluted with DMSO into 1 mM stock solution, and the 1 mM stock solution was diluted 3-fold with DMSO at 8 points to prepare compound stock solutions of various concentrations.
Compound working solution: diluted 250-fold with buffer to obtain compound solutions of various concentrations.
In the V-bottom plate, the experimental group was added with 10 μL of factor D solution and 10 μL of compound solution; the positive control group was added with 10 μL of factor D solution and buffer containing 0.4% DMSO; the blank control group was added with […] containing 0.2% DMSO; incubated at 37° C. for 15 min; the factor B working solution and the factor C3b working solution were mixed homogeneously at a ratio of 1:1; 20 µL of the mixture was added to each well and incubated at 37° C. for 30 min; the reaction was stopped by adding 40 μL of stop solution; the production of product Bb was detected by MicroVue Bb Plus ELISA kit.
1.4.1 The required wells of the ELISA plate were taken out and allowed to return to room temperature, and the remaining ones were repackaged and stored at 4° C.;
1.4.2 the wells were washed twice with 300 μL of 1× wash buffer, and incubated for 1 min at 25° C. for the first wash;
1.4.3 samples were diluted 8-fold with complement specimen diluent, and 100 μL of sample was added to each well and incubated at 25° C. for 30 min;
1.4.4 the liquid in the wells was discarded, and the wells were washed 5 times with 300 μL of 1× wash buffer, and incubated at room temperature for 1 min for the first wash;
1.4.5 50 μL of Bb Plus Conjugate was added to each well and incubated at 25° C. for 30 min;
1.4.6 the liquid in the wells was discarded, and the wells were washed 5 times with 300 μL of 1× wash buffer, and incubated at room temperature for 1 min for the first wash;
1.4.7 100 μL of […] (Substrate Solution) was added to each well and incubated at 25° C. for 15 min;
1.4.8 100 μL of stop solution was added to each well, and the absorbance was detected at 450 nm within 30 min.
1.5.1 Inhibition rate of each drug concentration:
The PC group represents 0% inhibition rate, and the NC group represents 100% inhibition rate. […]

[2] = system: hemolysis of rabbit erythrocytes; test: Rabbit erythrocyte hemolysis assay to evaluate inhibitory activity on the bypass pathway; format: cell-based; conditions: Oryctolagus cuniculus, 0.5 h, 48% NHP or 26.4% NHS, 37° C. 30 min, absorbance 415 nm
From the text: 2. Rabbit Erythrocyte Hemolysis Assay to Evaluate the Inhibitory Activity of Compounds on the Bypass Pathway
Normal Human Serum, NHS (collected from healthy people), Normal Human Plasma, NHP (Shanghai Yuduo), 96-well ELISA plate (Jet Biofil), Japanese big-eared white rabbit (Wuhan WQJX), Alsever's solution (Procell), centrifuge (Thermo, PICO17), thermostatic shaker (Shanghai Fuma), destaining shaker (Beijing Liuyi), cell counter (Invitrogen, Counter Countess II) (GVB^o, EGTA, MgCl2, NaOH, microplate reader, microplate thermostatic shaker, and pipette are equivalent to those in the experiment 1).
48% NHP: 100% NHP was diluted to 48% with buffer;
26.4% NPS: 100% NHS was diluted to 26.4% with buffer;
rabbit erythrocyte suspension: blood was taken from rabbit ear marginal vein, anticoagulated with Alsever's solution at a ratio of 1:1, stored in portions at 4° C., and could be stored for 4 weeks. Before use, the suspension was centrifuged at 500 g for 5 min to discard the Alsever's solution, washed three times with an equal volume of buffer and centrifuged at 500 g for 5 min, and finally the density was adjusted to 6×10^8 cells/mL with buffer.
In the 96-well ELISA plate, the experimental group was added with 50 μL of 48% NHP or 26.4% NHS and 50 μL of compound solution; the positive control group was added with 50 μL of 48% NHP or 26.4% NHS and 50 μL of buffer containing 0.2% DMSO; the blank control group was added with 50 μL of 48% inactivated NHP or 26.4% inactivated NHS and 0.2% DMSO buffer; the H2O group was added with 100 μL of double-distilled water; incubated at 37° C. for 15 min; 20 μL of rabbit erythrocyte suspension was added to each well and incubated on a shaker at 37° C. for 30 min; centrifuged at 2000 g (3380 rpm) for 5 min, and […] of supernatant was transferred to a new 96-well ELISA plate, and the absorbance was detected at 415 nm.
The PC group represents 100% hemolysis, and the NC group represents 0% hemolysis.
IC50: half-maximal inhibitory concentration. Data were collected to calculate the log value of hemolysis percentage versus compound concentration, and IC50 values were calculated using GraphPad Prism software.

[3] = In vivo pharmacokinetic study (PK assay on SD rats); conditions: Sprague-Dawley, rat, plasma; for bioavailability: read-out: Oral bioavailability F
Method: 3. In Vivo Pharmacokinetic Study of the Compounds of the Present Disclosure
After adaptive domestication, SPF grade SD rats were administered 1 or 3 mg/kg the compounds of the present disclosure by single gavage and tail vein injection, respectively. Plasma was collected at specific time points after administration, and the concentration of compounds in plasma was detected by LC-MS/MS (AB SCIEX Qtrap4500). The PK parameters of each compound were calculated using software to reflect the pharmacokinetic properties of the compounds of the present disclosure in vivo in animals.

[4] = PO (3% DMSO + 4% Tween), 1 mg/kg
[5] = PO (3% DMSO + 4% Tween), 3 mg/kg

Row | Compound | IC50 [1] [nM] | IC50 [2] [nM] | AUC(0-t) ([3]; IV, 1 mg/kg) [ng·h/mL] | Cmax ([3]; IV, 1 mg/kg) [ng/mL] | half-life ([3]; IV, 1 mg/kg) [h] | bioavailability ([3]; PO 1 mg/kg vs IV 1 mg/kg) [%] | AUC(0-t) [3, 4] [ng·h/mL] | Cmax [3, 4] [ng/mL] | half-life [3, 4] [h] | bioavailability ([3]; PO 3 mg/kg vs IV 1 mg/kg) [%] | AUC(0-t) [3, 5] [ng·h/mL] | Cmax [3, 5] [ng/mL] | half-life [3, 5] [h]
1 | NCc1cccc(-c2cc(COc3ccccc3CC(=O)O)cc(N3CCC4(CC3)CC4)c2)c1 [Compound 001, 2-(2-((3′-(aminomethyl)-5-(6-azaspiro[2.5]octan-6-yl)-[1,1′-biphenyl]-3-yl)methoxy)phenyl)acetic acid] | 10 | 41 | 8030 | 1800 | 3.59 | 40.3 | 3240 | 577 | 4.13 |  |  |  | 
2 | NCc1cccc(-c2cc(COc3ccccc3CC(=O)O)cc(N3CCC4(CC3)CC4)c2)c1F [Compound 007, 2-(2-((3′-(aminomethyl)-2′-fluoro-5-(6-azaspiro[2.5]octan-6-yl)-[1,1′-biphenyl]-3-yl)methoxy)phenyl)acetic acid] | 12 | 59 | 3290 | 3270 | 0.64 | 70.2 | 2310 | 936 | 1.46 |  |  |  | 
3 | NCc1nccc(-c2cc(COc3ccccc3CC(=O)O)cc(N3CCC4(CC3)CC4)c2)c1F [Compound 023, 2-(2-((3-(2-(aminomethyl)-3-fluoropyridin-4-yl)-5-(6-azaspiro[2.5]octan-6-yl)benzyl)oxy)phenyl)acetic acid] | 15 | 76 | 7060 | 3410 | 4.58 |  |  |  |  | 35.3 | 7480 | 1020 | 4.1
